Patent publication US8088804B2, “N-hydroxyamide derivatives possessing antibacterial activity” (Pfizer Inc., priority 2005, dated 2012)
≈ marks a conversion by molar mass, not a printed value.

Experiments:
E. coli (2) = experiment: Susceptibility testing (MIC, CLSI microdilution); assay type: cell-based, Escherichia coli; conditions: 20 h at 35° C., in µg/mL (unit assumed)
Protocol: (§1) Compounds were tested following the microdilution method of CLSI (Clinical and Laboratory Standards Institute. Methods for dilution antimicrobial susceptibility tests for bacteria that grow aerobically; Approved standard—sixth edition. CLSI document M7-A5, CLSI, Wayne, Pa. 2003). Assays were performed in sterile plastic 96-well microtiter trays with round bottom wells (Greiner).
(§2) Stock solutions of test compounds and control antibiotics were prepared at 10 mg/ml in DMSO. Serial 2-fold dilutions of each drug were performed in a microtiter plate across each row using DMSO as solvent at 100-fold the desired final concentration. Wells in columns #1-11 contain drug and column #12 was kept as a growth control for the organism with no drug. Each well in the mother plate was diluted with sterile deionized water and DMSO, mixed, and volumes of 10 μl distributed to each well in the resulting assay plates.
(§3) Stock cultures were prepared using the Microbank™ method (Pro-Lab Diagnostics) and stored at −80° C. To propagate each strain, one bead was removed from the frozen vial and aseptically streaked onto Trypticase Soy Agar (Difco) which were incubated at 35° C. Standardized inocula were prepared using the direct colony suspension method according to CLSI guidelines (Clinical and Laboratory Standards Institute. Methods for dilution antimicrobial susceptibility tests for bacteria that grow aerobically; Approved standard—sixth edition. CLSI document M7-A5, CLSI, Wayne, Pa., 2003). Isolated colonies were selected from an 18-24 hr agar plate and resuspended in 0.9% sterile saline to match a 0.5 McFarland turbidity standard using a calorimeter (Vitek) at 80% of transmitance. The suspension was used within 15 minutes of preparation.
(§4) Mueller-Hinton Broth (MHB) (Difco) was prepared at a 1.1× concentration and supplemented with Ca++ and Mg++ as recommended by CLSI. For each organism, the standardized suspension was diluted 1:180 into appropriate growth medium in a sterile reservoir. After mixing, wells in the drug-containing assay plates were inoculated with a volume of 90 μl. Thus, for each minimum inhibitory concentration (MIC) determination, each well contains a final volume of 100 μl with an inoculum size of approximately 5×10^5 colony forming units (cfu)/ml and no more than 1% DMSO.
(§5) The completed microtiter plates were incubated 20 h at 35° C. in ambient air. Optical density of each well was determined at 600 nm using a VersaMax Microplate reader (Molecular Devices, Sunnyvale, Calif.). The MIC was defined as the lowest drug concentration causing complete suppression of visible bacterial growth.

E. coli tolC = experiment: Susceptibility testing (MIC, CLSI microdilution); assay type: cell-based, Escherichia coli; conditions: 20 h at 35° C., unit assumed
Protocol: as §1, §2, §3, §4, §5

P. aerug. (2) = experiment: Susceptibility testing (MIC, CLSI microdilution); assay type: cell-based, Pseudomonas aeruginosa; conditions: 20 h at 35° C., in µg/mL (unit assumed)
Protocol: as §1, §2, §3, §4, §5

P. aerug. Hypersuc = experiment: Susceptibility testing (MIC, CLSI microdilution); assay type: cell-based, Pseudomonas aeruginosa; conditions: 20 h at 35° C., Δ efflux, hypersusceptible strain, unit assumed
Protocol: as §1, §2, §3, §4, §5

K. pneu. = experiment: Susceptibility testing (MIC, CLSI microdilution); assay type: cell-based, Klebsiella pneumoniae; conditions: 20 h at 35° C., unit assumed
Protocol: as §1, §2, §3, §4, §5

H. influen. = experiment: Susceptibility testing (MIC, CLSI microdilution); assay type: cell-based, Haemophilus influenzae; conditions: 20 h at 35° C., unit assumed
Protocol: as §1, §2, §3, §4, §5

P. ae LpxC enzyme = P. ae LpxC enzyme (Pseudomonas aeruginosa, UniProt P47205); experiment: Enzyme inhibition testing (fluorescamine assay); assay type: biochemical; conditions: for inhibition at 0.5 µg/mL: @0.5 μg/ml
Protocol: Compounds were tested based on a published method (Wang W., 2001, Anal Biochem, 290, 338-46) with modifications. Enzyme assays were performed in the assay buffer (50 mM HEPES, pH8, 0.005% Brij, 50 μM ZnSO4, 1 mg/ml BSA) in 96-well V-bottom microtiter plates.
Stock solutions of test compounds and control antibiotics are prepared at 10 mg/ml in DMSO and are diluted in the assay buffer to 6-fold the final testing concentration. 5 μl compound dilution is distributed to the well of the assay plate. EDTA is used as positive control and the final concentration in assay is 12.5 mM.
P. ae LpxC enzyme dilution in the assay buffer is added to the compound in plate and pre-incubated with the compound at room temperature for 10 min. LpxC substrate is added to initiate the enzyme reaction and the final enzyme and substrate concentrations are 1.2 μM and 0.4 mM, respectively. The reaction continues at RT for 4 hrs before diluted with 45 μl of Borate buffer (0.4 M, pH9), followed by addition of 40 μl derivatization reagent (fluorescamine 2 mg/ml DMF). This mixture is incubated at RT for 10 min followed by addition of 150 μl DMF/H2O (1:1). The resulting solution is loaded onto Millipore filter unit (Microcon 10 k MWCO) and spun at 13 k rpm on bench top centrifuge for 15 min. 100 μl of this filtrate is transferred to a low fluorescence clear-bottom 96-well plate (Corning) and the fluorescence is detected at ex360 nm and em465 nm on a Tecan fluorescence plate reader. The percent inhibition is calculated based on EDTA produces 100% inhibition and negative control produces 100% activity.

[1] = @0.1 μg/ml, read-out: ENZYME (percent inhibition)
[2] = read-out: ENZYME (percent inhibition)

P. ae LpxC enzyme, sequence (P47205 whole entry): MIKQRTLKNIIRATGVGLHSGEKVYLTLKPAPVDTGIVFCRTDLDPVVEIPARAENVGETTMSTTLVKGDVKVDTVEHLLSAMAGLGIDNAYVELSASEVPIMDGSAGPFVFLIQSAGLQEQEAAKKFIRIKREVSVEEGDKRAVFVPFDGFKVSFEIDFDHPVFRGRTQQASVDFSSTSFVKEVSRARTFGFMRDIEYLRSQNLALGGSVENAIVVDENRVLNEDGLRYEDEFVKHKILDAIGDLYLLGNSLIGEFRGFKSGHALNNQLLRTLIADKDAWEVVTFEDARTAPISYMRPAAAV

O=C(NO)[C@H]1N(C(=O)c2ccc(-c3ccc(C(F)(F)F)cc3)cc2)CCS1(=O)=O [Compound 38, (S)-3-(4′-(Trifluoromethyl)biphenylcarbonyl)-N-hydroxythiazolidinesulfone-2-carboxamide]
MIC E. coli (2) (E. coli (2)): >64
MIC E. coli tolC (E. coli tolC): ≤ 0.06 µg/mL
MIC P. aerug. (2) (P. aerug. (2)): 32
MIC P. aerug. Hypersuc (P. aerug. Hypersuc): 8 µg/mL (≈ 18.7 µM)
MIC K. pneu. (K. pneu.): > 64 µg/mL
MIC H. influen. (H. influen.): > 64 µg/mL
inhibition at 0.1 µg/mL (P. ae LpxC enzyme; [1]): 30%

CCCc1ccc(-c2ccc(C(=O)N3CC[C@H](NC)[C@H]3C(=O)NO)cc2)cc1 [Compound 5]
MIC E. coli (2) (E. coli (2)): 64
MIC E. coli tolC (E. coli tolC): 32 µg/mL (≈ 83.9 µM)
MIC P. aerug. (2) (P. aerug. (2)): >64
MIC P. aerug. Hypersuc (P. aerug. Hypersuc): 64 µg/mL (≈ 168 µM)
MIC K. pneu. (K. pneu.): > 64 µg/mL
MIC H. influen. (H. influen.): 32 µg/mL (≈ 83.9 µM)
inhibition at 0.5 µg/mL (P. ae LpxC enzyme; [2]): 29%

O=C(NC(C(=O)NO)C(F)(F)F)c1ccc(-c2ccsc2)cc1 (racemic) [Compound 24, DL-4-Thiophen-3-yl-N-(2,2,2-trifluoro-1-hydroxycarbamoyl-ethyl)-benzamide]
MIC E. coli (2) (E. coli (2)): >64
MIC E. coli tolC (E. coli tolC): 16 µg/mL (≈ 46.5 µM)
MIC P. aerug. (2) (P. aerug. (2)): 32
MIC P. aerug. Hypersuc (P. aerug. Hypersuc): 2 µg/mL (≈ 5.81 µM)
MIC K. pneu. (K. pneu.): > 64 µg/mL
MIC H. influen. (H. influen.): 8 µg/mL (≈ 23.2 µM)
inhibition at 0.1 µg/mL (P. ae LpxC enzyme; [1]): 13%

CCc1ccc(-c2ccc(C(=O)N3CC[C@@H](N)[C@H]3C(=O)NO)cc2)cc1 [Compound 34, (2S,3R)-3-Amino-N-hydroxy-1-(4′-ethylbiphenylcarbonyl)pyrrolidine-2-carboxamide]
MIC E. coli (2) (E. coli (2)): >64
MIC E. coli tolC (E. coli tolC): > 64 µg/mL
MIC P. aerug. (2) (P. aerug. (2)): 16-32
MIC P. aerug. Hypersuc (P. aerug. Hypersuc): 64 µg/mL (≈ 181 µM)
MIC K. pneu. (K. pneu.): > 64 µg/mL
MIC H. influen. (H. influen.): > 64 µg/mL
inhibition at 0.5 µg/mL (P. ae LpxC enzyme; [2]): 93%

CCCc1ccc(-c2ccc(C(=O)N3C[C@@](O)(COC)C[C@H]3C(=O)NO)cc2)cc1 [Compound 9, (2S,4R)-N,4-Dihydroxy-4-(methoxymethyl)-1-(4′-propylbiphenylcarbonyl)pyrrolidine-2-carboxamide]
MIC E. coli (2) (E. coli (2)): >64
MIC E. coli tolC (E. coli tolC): > 64 µg/mL
MIC P. aerug. (2) (P. aerug. (2)): >64
MIC P. aerug. Hypersuc (P. aerug. Hypersuc): 32 µg/mL (≈ 77.6 µM)
MIC K. pneu. (K. pneu.): > 64 µg/mL
MIC H. influen. (H. influen.): > 64 µg/mL
inhibition at 1 µg/mL (P. ae LpxC enzyme; @1 μg/ml, read-out: ENZYME (percent inhibition)): 57%

CCCc1ccc(-c2ccc(C(=O)N3CC[C@H](F)[C@H]3C(=O)NO)cc2)cc1 [Compound 6]
MIC E. coli (2) (E. coli (2)): >64
MIC E. coli tolC (E. coli tolC): 16 µg/mL (≈ 43.2 µM)
MIC P. aerug. (2) (P. aerug. (2)): >64
MIC P. aerug. Hypersuc (P. aerug. Hypersuc): 32 µg/mL (≈ 86.4 µM)
MIC K. pneu. (K. pneu.): 32 µg/mL (≈ 86.4 µM)
MIC H. influen. (H. influen.): > 64 µg/mL
inhibition at 0.5 µg/mL (P. ae LpxC enzyme; [2]): 87%

CCCc1ccc(-c2ccc(C(=O)N3CSC[C@H]3C(=O)NO)cc2)cc1 [Compound 16]
MIC E. coli (2) (E. coli (2)): >64
MIC E. coli tolC (E. coli tolC): 16 µg/mL (≈ 43.2 µM)
MIC P. aerug. (2) (P. aerug. (2)): >64
MIC P. aerug. Hypersuc (P. aerug. Hypersuc): 16 µg/mL (≈ 43.2 µM)
MIC K. pneu. (K. pneu.): > 64 µg/mL
MIC H. influen. (H. influen.): > 64 µg/mL
inhibition at 0.5 µg/mL (P. ae LpxC enzyme; [2]): 57%

O=C(NO)[C@H]1N(C(=O)c2ccc(-c3ccc(F)cc3)cc2)CCS1(=O)=O [Compound 37, (S)-3-(4′-Fluorobiphenylcarbonyl)-N-hydroxythiazolidinesulfone-2-carboxamide]
MIC E. coli (2) (E. coli (2)): >64
MIC E. coli tolC (E. coli tolC): ≤ 0.06 µg/mL
MIC P. aerug. (2) (P. aerug. (2)): 4-32
MIC P. aerug. Hypersuc (P. aerug. Hypersuc): 2 µg/mL (≈ 5.29 µM)
MIC K. pneu. (K. pneu.): > 64 µg/mL
MIC H. influen. (H. influen.): > 64 µg/mL
ENZYME (percent inhibition) (P. ae LpxC enzyme; @0.1 μg/ml): 42%
inhibition at 0.1 µg/mL (P. ae LpxC enzyme; [1]): 32%

CCCc1ccc(-c2ccc(C(=O)N3CC[C@H](N=[N+]=[N-])[C@H]3C(=O)NO)cc2)cc1 [Compound 1, (2S,3S)-3-Azido-N-hydroxy-1-(4′-propylbiphenylcarbonyl)pyrrolidine-2-carboxamide]
MIC E. coli (2) (E. coli (2)): >64
MIC E. coli tolC (E. coli tolC): 32 µg/mL (≈ 81.3 µM)
MIC P. aerug. (2) (P. aerug. (2)): >64
MIC P. aerug. Hypersuc (P. aerug. Hypersuc): > 64 µg/mL
MIC K. pneu. (K. pneu.): > 64 µg/mL
MIC H. influen. (H. influen.): > 64 µg/mL
inhibition at 0.5 µg/mL (P. ae LpxC enzyme; [2]): 35%

CCCc1ccc(-c2ccc(C(=O)N3CC[C@H](NC=O)[C@H]3C(=O)NO)cc2)cc1 [Compound 4, (2S,3S)-3-Formamido-N-hydroxy-1-(4′-propylbiphenylcarbonyl)pyrrolidine-2-carboxamide]
MIC E. coli (2) (E. coli (2)): >64
MIC E. coli tolC (E. coli tolC): 32 µg/mL (≈ 80.9 µM)
MIC P. aerug. (2) (P. aerug. (2)): >64
MIC P. aerug. Hypersuc (P. aerug. Hypersuc): 64 µg/mL (≈ 162 µM)
MIC K. pneu. (K. pneu.): > 64 µg/mL
MIC H. influen. (H. influen.): > 64 µg/mL
inhibition at 0.5 µg/mL (P. ae LpxC enzyme; [2]): 69%

CCOc1ccc(-c2ccc(C(=O)NC(C(=O)NO)C(F)(F)F)cc2)cc1 (racemic) [Compound 22, DL-4′-Ethoxy-biphenyl-4-carboxylic acid (2,2,2-trifluoro-1-hydroxycarbamoyl-ethyl)-amide]
MIC E. coli (2) (E. coli (2)): 2
MIC E. coli tolC (E. coli tolC): 0.25 µg/mL (≈ 0.654 µM)
MIC P. aerug. (2) (P. aerug. (2)): 16-32
MIC P. aerug. Hypersuc (P. aerug. Hypersuc): 0.5 µg/mL (≈ 1.31 µM)
MIC K. pneu. (K. pneu.): 1 µg/mL (≈ 2.62 µM)
MIC H. influen. (H. influen.): 0.5 µg/mL (≈ 1.31 µM)
inhibition at 0.1 µg/mL (P. ae LpxC enzyme; [1]): < 10%

CCCc1ccc(-c2ccc(C(=O)N[C@@H](CCS(C)(=O)=O)C(=O)NO)cc2)cc1 [Compound 27, (S)-N-(1-(Hydroxyamino)-4-(methylsulfone)-1-oxobutan-2-yl)-4′-propylbiphenyl-4-carboxamide]
MIC E. coli (2) (E. coli (2)): >64
MIC E. coli tolC (E. coli tolC): > 64 µg/mL
MIC P. aerug. (2) (P. aerug. (2)): >64
MIC P. aerug. Hypersuc (P. aerug. Hypersuc): > 64 µg/mL
MIC K. pneu. (K. pneu.): > 64 µg/mL
MIC H. influen. (H. influen.): > 64 µg/mL
inhibition at 0.1 µg/mL (P. ae LpxC enzyme; [1]): 38%

CCCc1ccc(-c2ccc(C(=O)NC(C(=O)NO)c3cccs3)cc2)cc1 (centres unmarked) [Compound 30, N-(2-(Hydroxyamino)-2-oxo-1-(thiophen-2-yl)ethyl)-4′-propylbiphenyl-4-carboxamide]
MIC E. coli (2) (E. coli (2)): 64
MIC E. coli tolC (E. coli tolC): 2 µg/mL (≈ 5.07 µM)
MIC P. aerug. (2) (P. aerug. (2)): >64
MIC P. aerug. Hypersuc (P. aerug. Hypersuc): 32 µg/mL (≈ 81.1 µM)
MIC K. pneu. (K. pneu.): 8 µg/mL (≈ 20.3 µM)
MIC H. influen. (H. influen.): 16 µg/mL (≈ 40.6 µM)
inhibition at 0.5 µg/mL (P. ae LpxC enzyme; [2]): 87%
